Consider 16 molecules from patent US20210269434A1, “TRICYCLIC COMPOUNDS AS INHIBITORS OF KRAS” (Incyte Corporation, priority 2020, published 2021).

In test [1] the test system is MIA PaCa-2 (KRAS G12C) cells. The test can be described thus: Cellular pERK HTRF assay (KRAS_G12C pERK). It is filed as cell-based, human. The conditions noted are these: Homo sapiens, MIA PaCa-2, 4 hours incubation, read-out: G12C_pERK. Here is the method: Example C: Cellular pERK HTRF Assay
MIA PaCa-2 (KRAS G12C; ATCC® CRL-1420), A427 (KRAS G12D; ATCC® HTB53), HPAF-II (KRAS G12D; ATCC® CRL-1997) and NCI-H838 (KRAS WT; ATCC® CRL-5844) cells are purchased from ATCC and maintained in RPMI 1640 media supplemented with 10% FBS (Gibco/Life Technologies). The cells are plated at 5000 cells per well (8 uL) into Greiner 384-well low volume, flat-bottom, tissue culture treated white plates and incubated overnight at 37° C., 5% CO2. The next morning, test compound stock solutions are diluted in media at 3× the final concentration, and 4 uL are added to the cells. The plate is mixed by gentle rotation for 30 seconds (250 rpm) at room temperature. The cells are incubated with the KRAS G12C and G12D compounds for 4 hours or 2 hours respectively at 37° C., 5% CO2.
4 uL of 4× lysis buffer with blocking reagent (1:25) (Cisbio) are added to each well and plates are rotated gently (300 rpm) for 30 minutes at room temperature. 4 uL per well of Cisbio anti Phospho-ERK 1/2 d2 is mixed with anti Phospho-ERK 1/2 Cryptate (1:1) are added to each well, mixed by rotation and incubated overnight in the dark at room temperature. Plates are read on the Pherastar plate reader at 665 nm and 620 nm wavelengths. IC50 determination is performed by fitting the curve of inhibitor percent inhibition versus the log of the inhibitor concentration using the GraphPad Prism 7 software.

Another test has as its target KRAS G12C (Homo sapiens, UniProt P01116, G12C). The test can be described thus: GDP-GTP exchange assay (KRAS_G12C exchange). It is filed as biochemical. The conditions noted are these: bodipy-GDP loaded KRAS G12C 2.5 nM, SOS1 150 nM, GppNHp; 2 hours pre-incubation, 2 hours reaction; read-out: G12C_exchange. The method, then: Example A. GDP-GTP Exchange Assay
The inhibitor potency of the exemplified compounds was determined in a fluorescence based guanine nucleotide exchange assay, which measures the exchange of bodipy-GDP (fluorescently labeled GDP) for GppNHp (Non-hydrolyzable GTP analog) to generate the active state of KRAS in the presence of SOS1 (guanine nucleotide exchange factor). Inhibitors were serially diluted in DMSO and a volume of 0.1 μL was transferred to the wells of a black low volume 384-well plate. 5 μL/well volume of bodipy-loaded KRAS G12C diluted to 5 nM in assay buffer (25 mM Hepes pH 7.5, 50 mM NaCl, 10 mM MgCl2 and 0.01% Brij-35) was added to the plate and pre-incubated with inhibitor for 2 hours at ambient temperature. Appropriate controls (enzyme with no inhibitor or with a G12C inhibitor (AMG-510)) were included on the plate. The exchange was initiated by the addition of a 5 μL/well volume containing 1 mM GppNHp and 300 nM SOS1 in assay buffer. The 10 μL/well reaction concentration of the bodipy-loaded KRAS G12C, GppNHp, and SOS1 were 2.5 nM, 500 uM, and 150 nM, respectively. The reaction plates were incubated at ambient temperature for 2 hours, a time estimated for complete GDP-GTP exchange in the absence of inhibitor. For the KRAS G12D and G12V mutants, similar guanine nucleotide exchange assays were used with 2.5 nM as final concentration for the bodipy loaded KRAS proteins and with 4 hours and 3 hours incubation after adding GppNHp-SOS1 mixture for G12D and G12V respectively. A cyclic peptide described to selectively bind G12D mutant (Sakamoto et al., BBRC 484.3 (2017), 605-611) or internal compounds with confirmed binding were used as positive controls in the assay plates. Fluorescence intensities were measured on a PheraStar plate reader instrument (BMG Labtech) with excitation at 485 nm and emission at 520 nm.
Either GraphPad prism or XLfit was used to analyze the data. The IC50 values were derived by fitting the data to a four parameter logistic equation producing a sigmoidal dose-response curve with a variable Hill coefficient. Prism equation: Y=Bottom+(Top−Bottom)/(1+10^((Log lC50−X)*Hill slope)); XLfit equation: Y=(A+((B−A)/(1+((X/C)^D)))) where X is the logarithm of inhibitor concentration and Y is the response.

Chain of KRAS G12C (P01116 1-188 isoform P01116-2 G12C): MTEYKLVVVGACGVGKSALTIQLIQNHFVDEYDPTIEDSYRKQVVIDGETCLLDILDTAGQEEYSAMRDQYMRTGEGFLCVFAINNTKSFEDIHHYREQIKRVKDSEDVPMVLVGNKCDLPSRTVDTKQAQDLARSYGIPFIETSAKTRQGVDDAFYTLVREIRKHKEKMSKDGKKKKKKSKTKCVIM

As to `Cc1c(Cl)cc2[nH]ncc2c1-c1c(Cl)cc2c(nc(OC[C@@H]3CCCN3C)c3nnn([C@H]4CCN(C(=O)/C=C/CN(C)C)[C@H](CC#N)C4)c32)c1F` [Example 183a, 2-((2S,4S)-4-(8-chloro-7-(6-chloro-5-methyl-1H-indazol-4-yl)-6-fluoro-4-(((S)-1-methylpyrrolidin-2-yl)-methoxy)-1H-[1,2,3]triazolo-[4,5-c]quinolin-1-yl)-1-((E)-4-(dimethylamino)but-2-enoyl)piperidin-2-yl)acetonitrile], the IC50 (in test [1]; at KRAS G12C) was not above 0.1 µM in each case.

Consider `CC#CC(=O)N1CC[C@H](n2nnc3c(OC[C@@H]4CCCN4C)nc4c(F)c(-c5cccc(C#N)c5C)c(Cl)cc4c32)C[C@H]1CC#N` [Example 96, 3-(1-((2S,4S)-1-(but-2-ynoyl)-2-(cyanomethyl)piperidin-4-yl)-8-chloro-6-fluoro-4-(((S)-1-methylpyrrolidin-2-yl)methoxy)-1H-[1,2,3]triazolo[4,5-c]quinolin-7-yl)-2-methylbenzonitrile], for which the IC50 (in test [1]; at KRAS G12C) was not above 0.1 µM in each case.

With `C=CC(=O)N1CC[C@H](n2nnc3c(OC[C@@H]4CCCN4C)nc4c(F)c(-c5cccc(C#N)c5C)c(Cl)cc4c32)C[C@H]1CC#N` [Example 95, 3-(1-((2S,4S)-1-acryloyl-2-(cyanomethyl)piperidin-4-yl)-8-chloro-6-fluoro-4-(((S)-1-methylpyrrolidin-2-yl)methoxy)-1H-[1,2,3]triazolo[4,5-c]quinolin-7-yl)-2-methylbenzonitrile], the IC50 (in test [1]; at KRAS G12C) was not above 0.1 µM each time.

For the molecule `CC#CC(=O)N1CC[C@H](n2nnc3c(N4CC(C)(N(C)C)C4)nc4c(F)c(-c5cccc(Cl)c5C)c(C)cc4c32)C[C@H]1CC#N` [Example 103, 2-((2S,4S)-1-(but-2-ynoyl)-4-(7-(3-chloro-2-methyl-phenyl)-4-(3-(dimethyl-amino)-3-methylazetidin-1-yl)-6-fluoro-8-methyl-1H-[1,2,3]triazolo[4,5-c]quinolin-1-yl)piperidin-2-yl)acetonitrile], the IC50 (in test [1]; on KRAS G12C) was not above 0.1 µM throughout.

Regarding `CC#CC(=O)N1CC[C@H](n2nnc3c(N4CC(C)(N(C)C)C4)nc4c(F)c(-c5cccc(Cl)c5OC)c(C(F)(F)F)cc4c32)C[C@H]1CC#N` (single isomer, unassigned) [Example 243b], the IC50 (in test [1]; on KRAS G12C) was not above 0.1 µM each time.

As for `C=CC(=O)N1CC(n2cnc3c(OC[C@@H]4CCCN4C)nc4c(F)c(-c5cc(O)cc6ccccc56)c(Cl)cc4c32)C1` (single isomer, unassigned) [Example 6a], the IC50 in test [1] is 0.1 to 1 µM; on KRAS G12C, not above 0.1 µM.

For `Cc1nccn1-c1nc2c(F)c(-c3ccccc3)c(Cl)cc2c2c1ncn2[C@H]1CCN(C(=O)/C=C/CN(C)C)[C@H](CC#N)C1` [Example 151, 2-((2S,4S)-4-(8-chloro-6-fluoro-4-(2-methyl-1H-imidazol-1-yl)-7-phenyl-1H-imidazo[4,5-c]quinolin-1-yl)-1-((E)-4-(dimethylamino)but-2-enoyl)piperidin-2-yl)acetonitrile], the IC50 (in test [1]; on KRAS G12C) was not above 0.1 µM each time.

Regarding `C=CC(=O)N1CC[C@H](n2nnc3c(OC[C@@H]4CCCN4C)nc4c(F)c(-c5ccc(F)c(Cl)c5)c(Cl)cc4c32)C[C@H]1CC#N` [Example 85, 2-((2S,4S)-1-acryloyl-4-(8-chloro-7-(3-chloro-4-fluorophenyl)-6-fluoro-4-(((S)-1-methylpyrrolidin-2-yl)methoxy)-1H-[1,2,3]triazolo[4,5-c]quinolin-1-yl)piperidin-2-yl)acetonitrile], the IC50 (in test [1]; on KRAS G12C) was not above 0.1 µM in each case.

As for `COC/C=C/C(=O)N1CC[C@H](n2nnc3c(O[C@@H](C)CN(C)C)nc4c(F)c(-c5cccc(C)c5C)c(C)cc4c32)C[C@H]1CC#N` [Example 145, 2-((2S,4S)-4-(4-(((S)-1-(dimethylamino)propan-2-yl)oxy)-7-(2,3-dimethylphenyl)-6-fluoro-8-methyl-1H-[1,2,3]triazolo[4,5-c]quinolin-1-yl)-1-((E)-4-methoxybut-2-enoyl)piperidin-2-yl)acetonitrile], the IC50 (in test [1]; at KRAS G12C) was not above 0.1 µM each time.

Take `CC#CC(=O)N1CC[C@H](n2nnc3c(OC[C@@H]4CCCN4C)nc4c(F)c(-c5cccc(Cl)c5C)c(Cl)cc4c32)C[C@H]1CC#N` (single isomer, unassigned) [Example 87a]: the IC50 (in test [1]; on KRAS G12C) was not above 0.1 µM in each case.

As for `Cc1cccc(-c2c(Cl)cc3c(nc(N4CC(N(C)C)C4)c4ncn([C@H]5CCN(C(=O)/C=C/CF)[C@H](CC#N)C5)c43)c2F)c1C` [Example 149, 2-((2S,4S)-4-(8-chloro-4-(3-(dimethylamino)azetidin-1-yl)-7-(2,3-dimethylphenyl)-6-fluoro-1H-imidazo[4,5-c]quinolin-1-yl)-1-((E)-4-fluorobut-2-enoyl)piperidin-2-yl)acetonitrile], the IC50 (in test [1]; at KRAS G12C) was not above 0.1 µM in each case.

As to `CC#CC(=O)N1CC[C@H](n2nnc3c(O[C@@H](C)CN(C)C)nc4c(F)c(-c5cccc(Cl)c5C)c(Cl)cc4c32)C[C@H]1CC#N` [Example 94, 2-((2S,4S)-1-(but-2-ynoyl)-4-(8-chloro-7-(3-chloro-2-methylphenyl)-4-(((S)-1-(dimethylamino)propan-2-yl)oxy)-6-fluoro-1H-[1,2,3]triazolo[4,5-c]quinolin-1-yl)piperidin-2-yl)acetonitrile], the IC50 (in test [1]; at KRAS G12C) was not above 0.1 µM throughout.

Consider `Cc1c(Cl)cc2[nH]ncc2c1-c1c(Cl)cc2c(nc(N3CC(N(C)C)C3)c3nnn([C@H]4CCN(C(=O)/C=C/C(F)F)[C@H](CC#N)C4)c32)c1F` [Example 201a, 2-((2S,4S)-4-(8-chloro-7-(6-chloro-5-methyl-1H-indazol-4-yl)-4-(3-(dimethylamino)azetidin-1-yl)-6-fluoro-1H-[1,2,3]triazolo[4,5-c]quinolin-1-yl)-1-((E)-4,4-difluorobut-2-enoyl)piperidin-2-yl)acetonitrile], for which the IC50 (in test [1]; at KRAS G12C) was not above 0.1 µM each time.

Regarding `COC/C=C/C(=O)N1CC[C@H](n2nnc3c(OC[C@@H]4CCCN4C)nc4c(F)c(-c5c(C)c(Cl)cc6[nH]ncc56)c(Cl)cc4c32)C[C@H]1CC#N` (single isomer, unassigned) [Example 191a], the IC50 (in test [1]; at KRAS G12C) was not above 0.1 µM throughout.

Take `C=CC(=O)N1CCCC(n2cnc3c(OC[C@@H]4CCCN4C)nc4c(F)c(-c5cc(O)cc6ccccc56)c(Cl)cc4c32)C1` (mixture of isomers) [Example 5, 1-(3-(8-chloro-6-fluoro-7-(3-hydroxynaphthalen-1-yl)-4-(((S)-1-methylpyrrolidin-2-yl)methoxy)-1H-imidazo[4,5-c]quinolin-1-yl)piperidin-1-yl)prop-2-en-1-one]: the IC50 in test [1] was 1 to 5 µM; on KRAS G12C, not above 0.1 µM.

Consider `COC/C=C/C(=O)N1CC[C@H](n2cnc3c(OC[C@@H]4CCCN4C)nc4c(F)c(-c5c(C)c(Cl)cc6[nH]ncc56)c(Cl)cc4c32)C[C@H]1CC#N` [Example 184a, 2-((2S,4S)-4-(8-chloro-7-(6-chloro-5-methyl-1H-indazol-4-yl)-6-fluoro-4-(((S)-1-methylpyrrolidin-2-yl)methoxy)-1H-imidazo[4,5-c]quinolin-1-yl)-1-((E)-4-methoxybut-2-enoyl)piperidin-2-yl)acetonitrile], for which the IC50 (in test [1]; at KRAS G12C) was not above 0.1 µM each time.
